Laboratory results from PubChem BioAssay (NCI).
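Five concentrations, 48 hours, 96-well plates. TGI: concentration producing complete growth inhibition.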

Tests used:
Test in all cases: NCI-60 cell line screen, 48 h
RPMI-8226 leukemia = system: RPMI-8226 leukemia
MDA-MB-435 = system: MDA-MB-435
NCI-H460 lung = system: NCI-H460 lung
MALME-3M melanoma = system: MALME-3M melanoma
HS 578T breast = system: HS 578T breast
COLO 205 colon = system: COLO 205 colon
IGROV1 ovarian = system: IGROV1 ovarian
T-47D breast = system: T-47D breast
SF-295 CNS = system: SF-295 CNS
HCC-2998 colon = system: HCC-2998 colon
HOP-62 NSCLC = system: HOP-62 NSCLC
A549 NSCLC = system: A549 NSCLC
SR leukemia = system: SR leukemia
OVCAR-5 ovarian = system: OVCAR-5 ovarian
HL-60(TB) leukemia = system: HL-60(TB) leukemia
NCI-H226 lung = system: NCI-H226 lung
MOLT-4 leukemia = system: MOLT-4 leukemia

Measured: TGI

CSc1c(CC(=O)Nc2ccc(Cl)cc2)n(Cc2ccccc2)c2ccccc12
> 100 µM: RPMI-8226 leukemia | MDA-MB-435 | NCI-H460 lung | MALME-3M melanoma | COLO 205 colon | IGROV1 ovarian | T-47D breast | SF-295 CNS | HOP-62 NSCLC | A549 NSCLC | SR leukemia | OVCAR-5 ovarian | HL-60(TB) leukemia | MOLT-4 leukemia
69.4 µM: HS 578T breast
71.8 µM: NCI-H226 lung
88 µM: HCC-2998 colon

COc1c2c(cc3c1C1(O)Cc4ccc5c(c4C[N+]1(C)CC3)OCO5)OCO2 (stereo not given)
> 100 µM: RPMI-8226 leukemia | MDA-MB-435 | NCI-H460 lung | MALME-3M melanoma | HS 578T breast | COLO 205 colon | IGROV1 ovarian | T-47D breast | SF-295 CNS | HCC-2998 colon | HOP-62 NSCLC | A549 NSCLC | SR leukemia | OVCAR-5 ovarian | HL-60(TB) leukemia | NCI-H226 lung | MOLT-4 leukemia

CN1C(=O)CC2CCC(=O)N2c2cccnc21 (stereo not given)
> 100 µM: RPMI-8226 leukemia | MDA-MB-435 | NCI-H460 lung | MALME-3M melanoma | HS 578T breast | COLO 205 colon | IGROV1 ovarian | T-47D breast | SF-295 CNS | HCC-2998 colon | HOP-62 NSCLC | A549 NSCLC | SR leukemia | HL-60(TB) leukemia | NCI-H226 lung

COc1cc2ccc1OCc1cccc(n1)COc1ccc(cc1OC)C=NCCNCCNCCN=C2
> 100 µM: MDA-MB-435 | NCI-H460 lung | MALME-3M melanoma | HS 578T breast | COLO 205 colon | IGROV1 ovarian | T-47D breast | HCC-2998 colon | HOP-62 NSCLC | A549 NSCLC | SR leukemia | OVCAR-5 ovarian | HL-60(TB) leukemia | NCI-H226 lung | MOLT-4 leukemia

C=CCc1cc(C(Cc2ccccc2)NC(C)C)cc(OCc2ccccc2)c1OCc1ccccc1 (stereo not given)
26.7 µM: HCC-2998 colon | MOLT-4 leukemia
31.3 µM: COLO 205 colon
33.2 µM: OVCAR-5 ovarian
31.6 µM: SF-295 CNS
37.1 µM: HS 578T breast
30.3 µM: HOP-62 NSCLC
30.9 µM: RPMI-8226 leukemia
28.9 µM: MALME-3M melanoma
30.5 µM: A549 NSCLC
28.5 µM: NCI-H460 lung | SR leukemia
36.2 µM: NCI-H226 lung
29.9 µM: IGROV1 ovarian
29.2 µM: MDA-MB-435 | T-47D breast
34.7 µM: HL-60(TB) leukemia

CC(C)/C(=N\[N+](C)(C)C)c1ccccc1
> 100 µM: RPMI-8226 leukemia | MDA-MB-435 | NCI-H460 lung | MALME-3M melanoma | HS 578T breast | COLO 205 colon | IGROV1 ovarian | T-47D breast | SF-295 CNS | HCC-2998 colon | HOP-62 NSCLC | A549 NSCLC | SR leukemia | OVCAR-5 ovarian | HL-60(TB) leukemia | NCI-H226 lung | MOLT-4 leukemia

CC(C)(C)C1=CC(=C2C=Cc3ccccc3O2)C=C(C(C)(C)C)C1=O
4.04 µM: NCI-H460 lung
> 21.3 µM: MOLT-4 leukemia
18.9 µM: SF-295 CNS
14.5 µM: MALME-3M melanoma
26.2 µM: A549 NSCLC
25.6 µM: NCI-H226 lung
9.97 µM: T-47D breast
> 52.8 µM: IGROV1 ovarian
5.45 µM: RPMI-8226 leukemia
4.71 µM: COLO 205 colon
5.92 µM: HL-60(TB) leukemia
5.35 µM: SR leukemia
15.3 µM: OVCAR-5 ovarian
20.9 µM: HOP-62 NSCLC
2.99 µM: HCC-2998 colon
5.11 µM: MDA-MB-435
> 47.6 µM: HS 578T breast

CC(C)(C)OC(=O)CN1CCN(CC(=O)N2CCN(C(=O)OCc3ccccc3)CC2)CCN(CC(=O)OC(C)(C)C)CCN(CC(=O)N2CCN(C(=O)OCc3ccccc3)CC2)CC1
6.98 µM: NCI-H460 lung
5.67 µM: HS 578T breast
25.8 µM: OVCAR-5 ovarian
22.8 µM: NCI-H226 lung
2.64 µM: COLO 205 colon
16.4 µM: HOP-62 NSCLC
2.91 µM: RPMI-8226 leukemia
1.75 µM: SR leukemia
7.94 µM: MALME-3M melanoma
13.8 µM: SF-295 CNS
6.55 µM: HCC-2998 colon
0.525 µM: HL-60(TB) leukemia
5.05 µM: MOLT-4 leukemia
18.8 µM: T-47D breast
16.3 µM: A549 NSCLC
7.36 µM: MDA-MB-435
2.65 µM: IGROV1 ovarian

Cc1ccc2[nH]c3[nH]c(=S)[nH]c(=O)c3c2c1
> 100 µM: RPMI-8226 leukemia | MDA-MB-435 | MALME-3M melanoma | HS 578T breast | COLO 205 colon | IGROV1 ovarian | T-47D breast | SF-295 CNS | HCC-2998 colon | HOP-62 NSCLC | A549 NSCLC | SR leukemia | OVCAR-5 ovarian | HL-60(TB) leukemia | NCI-H226 lung | MOLT-4 leukemia

O=C1CSC2=NC3=C(CSC/C3=C\c3ccccc3)C(c3ccccc3)N12 (stereo not given)
> 100 µM: RPMI-8226 leukemia | MDA-MB-435 | NCI-H460 lung | MALME-3M melanoma | HS 578T breast | COLO 205 colon | IGROV1 ovarian | T-47D breast | SF-295 CNS | HCC-2998 colon | HOP-62 NSCLC | A549 NSCLC | SR leukemia | OVCAR-5 ovarian | HL-60(TB) leukemia | NCI-H226 lung | MOLT-4 leukemia

O=C1CCCCC/C1=C\c1ccccc1
> 100 µM: RPMI-8226 leukemia | MDA-MB-435 | NCI-H460 lung | MALME-3M melanoma | HS 578T breast | COLO 205 colon | IGROV1 ovarian | T-47D breast | SF-295 CNS | HCC-2998 colon | HOP-62 NSCLC | A549 NSCLC | SR leukemia | OVCAR-5 ovarian | HL-60(TB) leukemia | NCI-H226 lung | MOLT-4 leukemia

N#C/C(N)=C(\C#N)N=CNc1ccc(N)cc1
> 100 µM: RPMI-8226 leukemia | MDA-MB-435 | NCI-H460 lung | MALME-3M melanoma | HS 578T breast | COLO 205 colon | IGROV1 ovarian | T-47D breast | SF-295 CNS | HCC-2998 colon | HOP-62 NSCLC | A549 NSCLC | SR leukemia | OVCAR-5 ovarian | HL-60(TB) leukemia | NCI-H226 lung | MOLT-4 leukemia

COc1cc(NC=C2C(=O)OC(C)(C)OC2=O)c(OC)c(C)c1OC
> 100 µM: RPMI-8226 leukemia | MDA-MB-435 | NCI-H460 lung | MALME-3M melanoma | HS 578T breast | COLO 205 colon | IGROV1 ovarian | T-47D breast | SF-295 CNS | HCC-2998 colon | HOP-62 NSCLC | A549 NSCLC | SR leukemia | OVCAR-5 ovarian | HL-60(TB) leukemia | NCI-H226 lung | MOLT-4 leukemia

Cc1c(N2C(=O)/C(=C/c3ccc(N(CCC#N)CCC#N)cc3)N=C2c2ccccc2)c(=O)n(-c2ccccc2)n1C
> 100 µM: RPMI-8226 leukemia | MDA-MB-435 | NCI-H460 lung | MALME-3M melanoma | HS 578T breast | COLO 205 colon | IGROV1 ovarian | T-47D breast | SF-295 CNS | HCC-2998 colon | HOP-62 NSCLC | A549 NSCLC | SR leukemia | OVCAR-5 ovarian | HL-60(TB) leukemia | NCI-H226 lung | MOLT-4 leukemia

COc1cccc2cc(C(C)=O)c(=O)oc12
> 100 µM: RPMI-8226 leukemia | MDA-MB-435 | NCI-H460 lung | MALME-3M melanoma | HS 578T breast | COLO 205 colon | IGROV1 ovarian | T-47D breast | SF-295 CNS | HCC-2998 colon | HOP-62 NSCLC | A549 NSCLC | SR leukemia | OVCAR-5 ovarian | HL-60(TB) leukemia | NCI-H226 lung | MOLT-4 leukemia

CCN(CC)CCCNc1[nH]ncc2c(C)c3nc4ccc(OC)cc4c3cc12
0.0904 µM: MOLT-4 leukemia
6.48 µM: SF-295 CNS
2.69 µM: RPMI-8226 leukemia
4.16 µM: HOP-62 NSCLC
2.36 µM: MALME-3M melanoma
4.66 µM: NCI-H460 lung
1.7 µM: NCI-H226 lung
2.33 µM: HCC-2998 colon
2.73 µM: A549 NSCLC
2.46 µM: MDA-MB-435
2.9 µM: HL-60(TB) leukemia
3.36 µM: T-47D breast
2.91 µM: IGROV1 ovarian
2.89 µM: COLO 205 colon
1.76 µM: SR leukemia
6.66 µM: OVCAR-5 ovarian
4.25 µM: HS 578T breast

CCN(CC)c1ccc2cc(C(=O)Nc3ccc(C)cc3)c(=N)oc2c1
> 100 µM: RPMI-8226 leukemia | MDA-MB-435 | NCI-H460 lung | MALME-3M melanoma | HS 578T breast | COLO 205 colon | IGROV1 ovarian | T-47D breast | HCC-2998 colon | HOP-62 NSCLC | A549 NSCLC | SR leukemia | OVCAR-5 ovarian | HL-60(TB) leukemia | NCI-H226 lung | MOLT-4 leukemia

CN(C(=O)Cc1cc(Cl)c(Cl)cc1NC(=O)CN)[C@H]1CCCC[C@@H]1N1CCCC1
31.6 µM: HCC-2998 colon
94 µM: RPMI-8226 leukemia
77.1 µM: SF-295 CNS
77.8 µM: SR leukemia
52.7 µM: HL-60(TB) leukemia
64 µM: HS 578T breast
36.1 µM: MALME-3M melanoma
32.6 µM: MDA-MB-435
> 100 µM: NCI-H460 lung | IGROV1 ovarian | HOP-62 NSCLC | A549 NSCLC | OVCAR-5 ovarian | MOLT-4 leukemia
98.4 µM: T-47D breast

O=C(O)c1ccc(Nc2nc3cc(C(F)(F)F)ccc3n3cccc23)cc1
67.7 µM: MOLT-4 leukemia
> 100 µM: MDA-MB-435 | MALME-3M melanoma | HS 578T breast | IGROV1 ovarian | SF-295 CNS | HOP-62 NSCLC | A549 NSCLC | OVCAR-5 ovarian | HL-60(TB) leukemia
44.6 µM: HCC-2998 colon
70.4 µM: T-47D breast
37 µM: COLO 205 colon
68.6 µM: RPMI-8226 leukemia
41.6 µM: SR leukemia
38.7 µM: NCI-H460 lung

COC(=O)[C@@H]1CC(C(CN)c2cn(C(=O)OC(C)(C)C)c3ccccc23)C(=O)N1C(=O)OC(C)(C)C (stereo not given in full)
54.1 µM: MALME-3M melanoma
97.8 µM: NCI-H226 lung
59.2 µM: HL-60(TB) leukemia
84.2 µM: OVCAR-5 ovarian
43.3 µM: SR leukemia
24.1 µM: RPMI-8226 leukemia
> 100 µM: HS 578T breast | T-47D breast | HOP-62 NSCLC | A549 NSCLC
45.2 µM: SF-295 CNS
37.6 µM: MOLT-4 leukemia
50.7 µM: MDA-MB-435
58.1 µM: IGROV1 ovarian
56 µM: NCI-H460 lung
32.8 µM: COLO 205 colon

CC1(C)OC[C@@H](O)[C@H](Br)CO1
> 100 µM: RPMI-8226 leukemia | MDA-MB-435 | NCI-H460 lung | MALME-3M melanoma | HS 578T breast | COLO 205 colon | T-47D breast | SF-295 CNS | HCC-2998 colon | HOP-62 NSCLC | SR leukemia | OVCAR-5 ovarian | HL-60(TB) leukemia | NCI-H226 lung | MOLT-4 leukemia
